Experimental data published in patent US20240109891A1, “NOVEL SUBSTITUTED TRICYCLIC AZA-HETEROCYCLES AS SOS1 INHIBITORS” (Viva Star Biosciences (Suzhou) Co., Ltd., priority 2021, published 2024).

Legend:
[1] = molecular target: T1, KRAS-WT and SOS1 proteins (Homo sapiens, UniProt Q07889); assay: KRAS-WT/SOS1 binding assay (HTRF); details: Tag1-SOS1 / Tag2-KRAS-WT, 10 μM GTP, read-out: Activity Data in Kras: SOS1 Assay, Wild Type
T1 construct: purchased Cisbio 63ADK000CB15PEG
T1 sequence (Q07889 1-1333): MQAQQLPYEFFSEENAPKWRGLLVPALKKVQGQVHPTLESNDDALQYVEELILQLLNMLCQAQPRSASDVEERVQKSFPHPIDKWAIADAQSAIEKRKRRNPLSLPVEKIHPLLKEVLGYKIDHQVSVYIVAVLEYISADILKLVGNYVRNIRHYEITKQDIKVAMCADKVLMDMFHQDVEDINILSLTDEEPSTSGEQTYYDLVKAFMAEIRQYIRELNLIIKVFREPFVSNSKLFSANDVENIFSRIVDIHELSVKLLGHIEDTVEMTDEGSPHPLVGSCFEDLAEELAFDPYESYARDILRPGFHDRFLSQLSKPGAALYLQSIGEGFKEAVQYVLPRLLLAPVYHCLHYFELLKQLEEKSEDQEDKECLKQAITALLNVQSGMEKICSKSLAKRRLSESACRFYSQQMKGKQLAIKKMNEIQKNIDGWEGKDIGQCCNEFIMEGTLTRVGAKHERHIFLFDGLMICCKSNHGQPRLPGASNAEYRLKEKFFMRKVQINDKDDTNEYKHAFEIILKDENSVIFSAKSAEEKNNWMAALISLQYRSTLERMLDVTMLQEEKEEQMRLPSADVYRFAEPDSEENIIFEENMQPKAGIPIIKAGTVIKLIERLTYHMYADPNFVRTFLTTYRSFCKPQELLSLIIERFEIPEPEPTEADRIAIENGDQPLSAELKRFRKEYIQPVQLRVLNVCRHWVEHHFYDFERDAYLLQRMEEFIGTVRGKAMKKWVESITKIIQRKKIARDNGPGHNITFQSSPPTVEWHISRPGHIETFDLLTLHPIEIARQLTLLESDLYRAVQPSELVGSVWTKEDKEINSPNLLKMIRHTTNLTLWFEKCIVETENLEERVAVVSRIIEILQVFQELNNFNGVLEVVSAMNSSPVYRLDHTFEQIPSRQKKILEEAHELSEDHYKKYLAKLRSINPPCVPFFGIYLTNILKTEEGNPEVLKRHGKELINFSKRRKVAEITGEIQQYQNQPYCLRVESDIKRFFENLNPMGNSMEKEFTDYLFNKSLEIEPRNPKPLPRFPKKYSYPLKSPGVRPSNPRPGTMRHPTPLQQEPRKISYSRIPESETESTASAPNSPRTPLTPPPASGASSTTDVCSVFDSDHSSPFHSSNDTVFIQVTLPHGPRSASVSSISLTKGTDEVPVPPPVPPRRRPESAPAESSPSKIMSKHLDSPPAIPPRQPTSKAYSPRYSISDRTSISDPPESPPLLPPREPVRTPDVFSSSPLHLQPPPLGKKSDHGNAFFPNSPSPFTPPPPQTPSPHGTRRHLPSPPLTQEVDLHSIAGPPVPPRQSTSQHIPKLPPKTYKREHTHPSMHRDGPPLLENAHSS
Procedure: (§1) KRAS-WT (or G12C/G12D/G12V)/SOS1 Binding Assay
(§2) Low IC50 values are indicative of high potency of the SOS1 inhibitor compounds in this assay setting.
(§3) The KRAS-WT (or G12C/G12D/G12V)/SOS1 binding assay is performed using an assay kit (Cisbio, Cat #63ADK000CB15PEG or 63ADK000CB16PEG/63ADK000CB17PEG/63ADK000CB18PEG) according to the procedure recommended by the manufacturer. • 1) Thaw and prepare the working solution of Tag1-SOS1 protein and Tag2-KRAS-WT (or G12C/G12D/G12V) protein with final concentration of 10 μM GTP (Sigma, Cat #V900868). • 2) Thaw and prepare the working solution of anti-Tag1-Tb^3+ anti-Tag2-XL665. • 3) Dispense 2 μL of serially diluted compound, 4 μL of Tag1-SOS1 protein and 4 μL of Tag2-KRAS-WT (or G12C/G12D/G12V) protein with GTP into a ProxiPlate-384 Plus, white 384-shallow well microplate (PerkinElmer, Cat #6008280). • 4) Incubate the plate for 15 minutes at room temperature. • 5) Dispense 10 μL of pre-mixed anti-Tag1-Tb^3+ and anti-Tag2-XL665 into the plate. • 6) Seal the plate and incubate for 2 hours at room temperature. • 7) Remove the plate sealer and read on PHERAstar FS (BMG LABTECH, PHERAstar FS). • 8) Calculate the ratio of the acceptor and donor emission signals for each individual well using the following equation.
(§4) [formula] • 9) IC50 values are fitted and calculated by HTRF signal values and log of compound concentrations to nonlinear regression [Log (inhibitor) vs. Response−Variable Slope (four parameters)] using the GraphPad Prism 8.0.

[2] = molecular target: T2, KRAS G12D and SOS1 proteins (Homo sapiens, UniProt Q07889); assay: KRAS-G12D/SOS1 binding assay (HTRF); details: Tag1-SOS1 / Tag2-KRAS G12D, 10 μM GTP
T2 construct: purchased Cisbio 63ADK000CB17PEG
T2 sequence (Q07889 1-1333): T1 sequence (Q07889 1-1333)
Procedure: as §1, §2, §3, §4

What does the source list for Cc1nc(N[C@H](C)c2cccc3c2CCC3(F)F)c2cc(C3CCN(S(C)(=O)=O)CC3)c3nncn3c2n1 [Example 8, (R)-N-(1-(1,1-difluoro-2,3-dihydro-1H-inden-4-yl)ethyl)-2-methyl-6-(1-(methylsulfonyl)piperidin-4-yl)-[1,2,4]triazolo[4′,3′:1,6]pyrido[2,3-d]pyrimidin-4-amine]?
IC50 [1]: < 100 nM; IC50 [2]: < 100 nM

For CNCc1ccccc1-c1ccc([C@@H](C)Nc2nc3ccnn3c3cc(=O)n(C4(C)CC4)cc23)s1 [Example 74, 8-{[(1R)-1-(5-{2-[(methylamino)methyl]phenyl}thiophen-2-yl)ethyl]amino}-11-(1-methylcyclopropyl)-2,3,7,11-tetraazatricyclo[7.4.0.0^{2,6}]trideca-1(13),3,5,7,9-pentaen-12-one], which IC50 [1] is on record?
The IC50 was < 100 nM.

What about the IC50 [2] of the same molecule?
Its IC50 is < 100 nM.

How did the IC50 [1] turn out when Cc1nc(N[C@H](C)c2cc(N)cc(C(F)(F)F)c2)c2cc(O[C@H]3CCOC3)c3nncn3c2n1 [Example 18, N-[(1R)-1-[3-amino-5-(trifluoromethyl)phenyl]ethyl]-12-methyl-7-(oxolan-3-yloxy)-2,4,5,11,13-pentaazatricyclo[7.4.0.0^{2,6}]trideca-1(9),3,5,7,10,12-hexaen-10-amine] was run?
The IC50 was < 100 nM.

And the IC50 [2]?
Its IC50 is < 100 nM.

What does the source list for Cc1nc(N[C@H](C)c2cccc3c2CCC3(F)F)c2cc(O[C@H]3CCOC3)c3c(cnn3C)c2n1 [Example 36, N-((R)-1-(1,1-difluoro-2,3-dihydro-1H-inden-4-yl)ethyl)-2,7-dimethyl-6-(((S)-tetrahydrofuran-3-yl)oxy)-7H-pyrazolo[3,4-h]quinazolin-4-amine]?
IC50 [1]: < 100 nM; IC50 [2]: < 100 nM

What does the source list for COc1cc2c(cc1O[C@H]1CCOC1)c(N[C@H](C)c1cc(N)cc(C(F)(F)F)c1)nc1ccnn12 [Example 55, N-[(1R)-1-[3-amino-5-(trifluoromethyl)phenyl]ethyl]-8-methoxy-7-[(3S)-oxolan-3-yloxy]pyrazolo[1,5-a]quinazolin-5-amine]?
IC50 [1]: 100 to 500 nM; IC50 [2]: 100 to 500 nM

Which results are given for C[C@@H](Nc1nc2ccnn2c2cc(=O)n(C3CCN(S(C)(=O)=O)CC3)cc12)c1cccc(C(F)(F)CO)c1 [Example 67, (R)-5-((1-(3-(1,1-difluoro-2-hydroxyethyl)phenyl)ethyl)amino)-7-(1-(methylsulfonyl)piperidin-4-yl)pyrazolo[1,5-a]pyrido[3,4-e]pyrimidin-8(7H)-one]?
IC50 [1]: < 100 nM; IC50 [2]: 100 to 500 nM

Which results are given for Cc1nc(N[C@H](C)c2cccc(C(F)(F)CO)c2)c2cc(-c3ccc(=O)n(C)c3)c3nn(C(F)(F)F)cc3c2n1 [Example 34, 5-(4-{[(1R)-1-[3-(1,1-difluoro-2-hydroxyethyl)phenyl]ethyl]amino}-2-methyl-8-(trifluoromethyl)-8H-pyrazolo[3,4-h]quinazolin-6-yl)-1-methyl-1,2-dihydropyridin-2-one]?
IC50 [1]: 100 to 500 nM; IC50 [2]: 100 to 500 nM

How did the IC50 [1] turn out when CC(=O)N1CCC(c2cc3c(N[C@H](C)c4cccc5c4CCC5(F)F)nc(C)nc3n3cnnc23)CC1 [Example 7, (R)-1-(4-(4-((1-(1,1-difluoro-2,3-dihydro-1H-inden-4-yl)ethyl)amino)-2-methyl-[1,2,4]triazolo[4′,3′:1,6]pyrido[2,3-d]pyrimidin-6-yl)piperidin-1-yl)ethanone] was run?
The IC50 was < 100 nM.

What about the IC50 [2] of the same molecule?
Its IC50 is < 100 nM.

Which results are given for Cc1nc(N[C@H](C)c2cccc(C(F)(F)CO)c2)c2cc(C3CCNCC3)c3nncn3c2n1 [Example 14, (R)-2,2-difluoro-2-(3-(1-((2-methyl-6-(piperidin-4-yl)-[1,2,4]triazolo[4′,3′:1,6]pyrido[2,3-d]pyrimidin-4-yl)amino)ethyl)phenyl)ethan-1-ol]?
IC50 [1]: < 100 nM; IC50 [2]: < 100 nM

Which IC50 [1] does the source give for COc1cc2c(cc1C1CCN(C(C)=O)CC1)c(N[C@H](C)c1cccc3c1CCC3(F)F)nc1ccnn12 [Example 52, (R)-1-(4-(5-((1-(1,1-difluoro-2,3-dihydro-1H-inden-4-yl)ethyl)amino)-8-methoxypyrazolo[1,5-a]quinazolin-7-yl)piperidin-1-yl)ethanone] here?
Its IC50 is 100 to 500 nM.

What about the IC50 [2] of the same molecule?
Its IC50 is 100 to 500 nM.

With CC(=O)N1CCC(c2cc3c(N[C@H](C)c4cccc(C(F)(F)F)c4)nc(C)nc3n3cnnc23)CC1 [Example 9, (R)-1-(4-(2-methyl-4-((1-(3-(trifluoromethyl)phenyl)ethyl)amino)-[1,2,4]triazolo[4′,3′:1,6]pyrido[2,3-d]pyrimidin-6-yl)piperidin-1-yl)ethan-1-one] as the molecule, how does the IC50 [1] read?
The IC50 was < 100 nM.

And the IC50 [2]?
The IC50 was < 100 nM.

For C[C@@H](Nc1nc2c(F)cnn2c2cc(=O)n(C3CC(F)(F)C3)cc12)c1cccc(C(F)(F)CO)c1 [Example 78, (R)-5-((1-(3-(1,1-difluoro-2-hydroxyethyl)phenyl)ethyl)amino)-7-(3,3-difluorocyclobutyl)-3-fluoropyrazolo[1,5-a]pyrido[3,4-e]pyrimidin-8(7H)-one], which IC50 [1] is on record?
The IC50 was < 100 nM.

And the IC50 [2]?
Its IC50 is < 100 nM.

What does the source list for Cc1nc(N[C@H](C)c2cccc(C(F)(F)CO)c2)c2cc([C@H]3CC[C@@H](O)CC3)c3nncn3c2n1 [Example 15, Cis-(R)-4-(4-((1-(3-(1,1-difluoro-2-hydroxyethyl)phenyl)ethyl)amino)-2-methyl-[1,2,4]triazolo[4′,3′:1,6]pyrido[2,3-d]pyrimidin-6-yl)cyclohexan-1-ol]?
IC50 [1]: < 100 nM; IC50 [2]: < 100 nM

Which IC50 [1] does the source give for C[C@@H](Nc1nc2ccnn2c2cc(=O)n([C@H]3CCOC3)cc12)c1cccc(C(F)(F)CO)c1 [Example 72, 5-(((R)-1-(3-(1,1-difluoro-2-hydroxyethyl)phenyl)ethyl)amino)-7-((S)-tetrahydrofuran-3-yl)pyrazolo[1,5-a]pyrido[3,4-e]pyrimidin-8(7H)-one] here?
The IC50 was < 100 nM.

And the IC50 [2]?
The IC50 was < 100 nM.

How did the IC50 [1] turn out when COCC(F)(F)c1cccc([C@@H](C)Nc2nc(C)nc3c2cc(-c2ccc(=O)n(C)c2)c2c3cnn2C)c1 [Example 31, (R)-5-(4-((1-(3-(1,1-difluoro-2-methoxyethyl)phenyl)ethyl)amino)-2,7-dimethyl-7H-pyrazolo[3,4-h]quinazolin-6-yl)-1-methylpyridin-2(1H)-one] was run?
The IC50 was < 100 nM.

What about the IC50 [2] of the same molecule?
Its IC50 is < 100 nM.

Which IC50 [1] does the source give for Cc1nc(N[C@H](C)c2cccc3c2CCC3(F)F)c2cc(N3CCOCC3)c3nncn3c2n1 [Example 23, N-[(1R)-1-(1,1-difluoro-2,3-dihydro-1H-inden-4-yl)ethyl]-12-methyl-7-(morpholin-4-yl)-2,4,5,11,13-pentaazatricyclo[7.4.0.0^{2,6}]trideca-1(9),3,5,7,10,12-hexaen-10-amine] here?
Its IC50 is < 100 nM.

And the IC50 [2]?
Its IC50 is < 100 nM.

With Cc1nc(N[C@H](C)c2cccc(C(F)(F)CO)c2)c2cc(N3CC[C@H](O)C3)c3c(cnn3C)c2n1 [Example 43, (3S)-1-(4-{[(1R)-1-[3-(1,1-difluoro-2-hydroxyethyl)phenyl]ethyl]amino}-2,7-dimethyl-7H-pyrazolo[3,4-h]quinazolin-6-yl)pyrrolidin-3-ol] as the molecule, how does the IC50 [1] read?
Its IC50 is < 100 nM.

What about the IC50 [2] of the same molecule?
Its IC50 is < 100 nM.
